Tests used:
Format in all cases: in vivo
Lolium multiflorum Lam. [1] = experiment: Test Example 5: herbicidal effect by foliage application, plastic box (symbol K); details: 320 g/ha, 3 weeks after application
Summary of the method: (§1)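 Sowing in sterilized diluvial soil, 14 days' greenhouse growth at 25° C. to 30° C., then uniform small-sprayer foliar application of aqueous emulsion dilution; plants scored three weeks afterwards.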

[2] = system: Echinochloa oryzacola Vasing.; experiment: Test Example 1: herbicidal activity, application before weed generation in submerged conditions (symbol A); details: application herbicide amount 320 g/ha
Summary of the method: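 0–5 visual score, 3 wk post-application. Submerged pots, alluvial soil, water 4 cm; seeds sown mixed, rice at 2.5 leaves transplanted. Emulsion diluted to predetermined dose, applied to water surface at sowing. 25–30 °C greenhouse.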

Abutilon theophrasti = experiment: Test Example 5: herbicidal effect by foliage application, plastic box (symbol M); details: 320 g/ha, 3 weeks after application
Summary of the method: as §1

Setaria viridis = experiment: Test Example 5: herbicidal effect by foliage application, plastic box (symbol G); details: 320 g/ha, 3 weeks after application
Summary of the method: as §1

rice plant = experiment: Test Example 5: effect on crop by foliage application, plastic box (symbol b); details: 320 g/ha, 3 weeks after application
Summary of the method: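 Soil: sterilized diluvial. Container: plastic box, 21 × 13 cm, 7 cm deep. Sowing: spot-like, ~1.5 cm cover. Growth: greenhouse, 25° C. to 30° C.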

Veronica persica [3] = experiment: Test Example 5: herbicidal effect by foliage application, plastic box (symbol R); details: 320 g/ha, 3 weeks after application
Summary of the method: as §1

Veronica persica [4] = experiment: Test Example 4: herbicidal effect by soil treatment (symbol R); details: for R: Veronica persica, herbicidal effect grade: 320 g/ha
Summary of the method: (§2)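 Seeds were sown in sterilized diluvial soil, covered with about 1.5 cm of soil, and the soil surface was sprayed with a water-diluted emulsion of the compound at a predetermined rate. Plants grew in a greenhouse at 25° C. to 30° C.; effects were scored visually 3 weeks after application.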

[5] = system: Echinochloa oryzacola Vasing.; experiment: Test Example 2: herbicidal activity, application during weed generation in submerged conditions (symbol A); details: Table 23; application herbicide amount 320 g/ha; grade 0-5 by criteria of Test Example 1
Summary of the method: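 Visual herbicidal ratings, taken three weeks after dosing, reflect post-emergence water-surface application to seedlings at one to two leaves. Conditions: co-sown weeds in alluvial soil flooded to 4 cm, greenhouse held at 25° C. to 30° C.; compound given as water-diluted emulsion at a fixed herbicide amount.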

[6] = system: Echinochloa crus-galli var. crus-galli; experiment: Test Example 4: herbicidal effect by soil treatment (symbol H); details: for H: Echinochloa crus-galli var. crus-galli, herbicidal effect grade: 320 g/ha
Summary of the method: as §2

rapeseed = experiment: Test Example 4: effect on crop by soil treatment (symbol g); details: for g: rapeseed, effect grade on crop: 320 g/ha
Summary of the method: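 Grown at 25° C. to 30° C. in a greenhouse, the crops came from seed sown spot-wise in sterilized diluvial soil under roughly 1.5 cm of covering soil.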

Avena fatua = experiment: Test Example 4: herbicidal effect by soil treatment (symbol I); details: for I: Avena fatua, herbicidal effect grade: 320 g/ha
Summary of the method: as §2

Stellaria media = experiment: Test Example 5: herbicidal effect by foliage application, plastic box (symbol P); details: 320 g/ha, 3 weeks after application
Summary of the method: as §1

Alopecurus myosuroides = experiment: Test Example 4: herbicidal effect by soil treatment (symbol J); details: for J: Alopecurus myosuroides, herbicidal effect grade: 320 g/ha
Summary of the method: as §2

corn = experiment: Test Example 4: effect on crop by soil treatment (symbol c); details: for c: corn, effect grade on crop: 320 g/ha
Summary of the method: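 The test used sterilized diluvial soil. Seed was set down in spots and overlaid with about 1.5 cm of soil before growth in a greenhouse kept at 25° C. to 30° C.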

Lolium multiflorum Lam. [7] = experiment: Test Example 4: herbicidal effect by soil treatment (symbol K); details: for K: Lolium multiflorum Lam., herbicidal effect grade: 320 g/ha
Summary of the method: as §2

Amaranthus retroflexus = experiment: Test Example 5: herbicidal effect by foliage application, plastic box (symbol N); details: 320 g/ha, 3 weeks after application
Summary of the method: as §1

[8] = application herbicide amount 320 g/ha

Row | SMILES | K: Lolium multiflorum Lam., herbicidal effect (criteria 0-5) (Lolium multiflorum Lam. [1]) | Herbicidal effect grade, A: Echinochloa oryzacola Vasing. [2] | M: Abutilon theophrasti, herbicidal effect (criteria 0-5) (Abutilon theophrasti) | G: Setaria viridis, herbicidal effect (criteria 0-5) (Setaria viridis) | b: directly sowed rice plant, effect on crop (criteria 0-5) (rice plant) | R: Veronica persica, herbicidal effect (criteria 0-5) (Veronica persica [3]) | R: Veronica persica, herbicidal effect grade (Veronica persica [4]) | Herbicidal effect grade, A: Echinochloa oryzacola Vasing. [5] | H: Echinochloa crus-galli var. crus-galli, herbicidal effect grade [6] | g: rapeseed, effect grade on crop (rapeseed) | I: Avena fatua, herbicidal effect grade (Avena fatua) | P: Stellaria media, herbicidal effect (criteria 0-5) (Stellaria media) | J: Alopecurus myosuroides, herbicidal effect grade (Alopecurus myosuroides) | c: corn, effect grade on crop (corn) | K: Lolium multiflorum Lam., herbicidal effect grade (Lolium multiflorum Lam. [7]) | K: Lolium multiflorum Lam., herbicidal effect grade (Lolium multiflorum Lam. [1]) | M: Abutilon theophrasti, herbicidal effect grade (Abutilon theophrasti) | G: Setaria viridis, herbicidal effect grade (Setaria viridis) | R: Veronica persica, herbicidal effect grade (Veronica persica [3]) | P: Stellaria media, herbicidal effect grade (Stellaria media) | further results
1 | CON=C(C)CC1CC(OC(=O)C=Cc2ccco2)=C(c2c(C)cc(C)cc2C)C1=O (stereo not drawn) [1-091] | 5 (Herbicidal ratio of 90% or more (almost completely withered)) | 5 (Herbicidal ratio of 90% or more (almost completely withered)) | 4 (Herbicidal ratio of 70% or higher and lower than 90%) | 5 (Herbicidal ratio of 90% or more (almost completely withered)) | 5 (Herbicidal ratio of 90% or more (almost completely withered)) | 1 (Herbicidal ratio of 5% or higher and lower than 20%) | 0 (Herbicidal ratio of 5% or lower (almost no effect)) | 5 (Herbicidal ratio of 90% or more (almost completely withered)) | 5 (Herbicidal ratio of 90% or more (almost completely withered)) | 3 (Herbicidal ratio of 40% or higher and lower than 70%) | 3 (Herbicidal ratio of 40% or higher and lower than 70%) | 0 (Herbicidal ratio of 5% or lower (almost no effect)) | 5 (Herbicidal ratio of 90% or more (almost completely withered)) | 5 (Herbicidal ratio of 90% or more (almost completely withered)) | 5 (Herbicidal ratio of 90% or more (almost completely withered)) |  |  |  |  |  | N: Amaranthus retroflexus, herbicidal effect (criteria 0-5) (Amaranthus retroflexus): 3 (Herbicidal ratio of 40% or higher and lower than 70%)
2 | CCC(C)C(CC1CC(O)=C(c2c(C)cc(C)cc2C)C1=O)=NOC (stereo not drawn) [1-066] |  | 4 (Herbicidal ratio of 70% or higher and lower than 90%) |  |  |  |  |  | 2 (Herbicidal ratio of 20% or higher and lower than 40%) |  |  |  |  |  |  |  | 5 (Herbicidal ratio of 90% or more (almost completely withered)) | 1 (Herbicidal ratio of 5% or higher and lower than 20%) | 5 (Herbicidal ratio of 90% or more (almost completely withered)) | 3 (Herbicidal ratio of 40% or higher and lower than 70%) | 0 (Herbicidal ratio of 5% or lower (almost no effect)) | b: directly sowed rice plant, effect on crop grade (rice plant): 5 (Herbicidal ratio of 90% or more (almost completely withered)); R (Veronica persica) herbicidal effect grade (Veronica persica [4]; [8]): 0 (Herbicidal ratio of 5% or lower (almost no effect)); H (Echinochloa crus-galli var. crus-galli) herbicidal effect grade [6, 8]: 5 (Herbicidal ratio of 90% or more (almost completely withered)); g (rapeseed) effect on crop grade (rapeseed; [8]): 0 (Herbicidal ratio of 5% or lower (almost no effect)); I (Avena fatua) herbicidal effect grade (Avena fatua; [8]): 0 (Herbicidal ratio of 5% or lower (almost no effect)); J (Alopecurus myosuroides) herbicidal effect grade (Alopecurus myosuroides; [8]): 5 (Herbicidal ratio of 90% or more (almost completely withered)); c (corn) effect on crop grade (corn; [8]): 4 (Herbicidal ratio of 70% or higher and lower than 90%); K (Lolium multiflorum Lam.) herbicidal effect grade (Lolium multiflorum Lam. [7]; [8]): 5 (Herbicidal ratio of 90% or more (almost completely withered)); N: Amaranthus retroflexus, herbicidal effect grade (Amaranthus retroflexus): 0 (Herbicidal ratio of 5% or lower (almost no effect))
3 | CON=C(C)CC1CC(OC(=O)COc2ccc(C=O)cc2)=C(c2c(C)cc(C)cc2C)C1=O (stereo not drawn) [1-079] | 5 (Herbicidal ratio of 90% or more (almost completely withered)) | 5 (Herbicidal ratio of 90% or more (almost completely withered)) | 4 (Herbicidal ratio of 70% or higher and lower than 90%) | 5 (Herbicidal ratio of 90% or more (almost completely withered)) | 5 (Herbicidal ratio of 90% or more (almost completely withered)) | 3 (Herbicidal ratio of 40% or higher and lower than 70%) | 0 (Herbicidal ratio of 5% or lower (almost no effect)) | 5 (Herbicidal ratio of 90% or more (almost completely withered)) | 5 (Herbicidal ratio of 90% or more (almost completely withered)) | 4 (Herbicidal ratio of 70% or higher and lower than 90%) | 3 (Herbicidal ratio of 40% or higher and lower than 70%) | 1 (Herbicidal ratio of 5% or higher and lower than 20%) | 5 (Herbicidal ratio of 90% or more (almost completely withered)) | 4 (Herbicidal ratio of 70% or higher and lower than 90%) | 5 (Herbicidal ratio of 90% or more (almost completely withered)) |  |  |  |  |  | N: Amaranthus retroflexus, herbicidal effect (criteria 0-5) (Amaranthus retroflexus): 0 (Herbicidal ratio of 5% or lower (almost no effect))
4 | CC(CC1CC(O)=C(c2c(C)cc(C)cc2C)C1=O)=NOC(C)C (stereo not drawn) [1-052] |  | 5 (Herbicidal ratio of 90% or more (almost completely withered)) |  |  |  |  |  | 5 (Herbicidal ratio of 90% or more (almost completely withered)) |  |  |  |  |  |  |  | 5 (Herbicidal ratio of 90% or more (almost completely withered)) | 3 (Herbicidal ratio of 40% or higher and lower than 70%) | 5 (Herbicidal ratio of 90% or more (almost completely withered)) | 3 (Herbicidal ratio of 40% or higher and lower than 70%) | 0 (Herbicidal ratio of 5% or lower (almost no effect)) | b: directly sowed rice plant, effect on crop grade (rice plant): 5 (Herbicidal ratio of 90% or more (almost completely withered)); R (Veronica persica) herbicidal effect grade (Veronica persica [4]; [8]): 0 (Herbicidal ratio of 5% or lower (almost no effect)); H (Echinochloa crus-galli var. crus-galli) herbicidal effect grade [6, 8]: 5 (Herbicidal ratio of 90% or more (almost completely withered)); g (rapeseed) effect on crop grade (rapeseed; [8]): 3 (Herbicidal ratio of 40% or higher and lower than 70%); I (Avena fatua) herbicidal effect grade (Avena fatua; [8]): 4 (Herbicidal ratio of 70% or higher and lower than 90%); J (Alopecurus myosuroides) herbicidal effect grade (Alopecurus myosuroides; [8]): 5 (Herbicidal ratio of 90% or more (almost completely withered)); c (corn) effect on crop grade (corn; [8]): 3 (Herbicidal ratio of 40% or higher and lower than 70%); K (Lolium multiflorum Lam.) herbicidal effect grade (Lolium multiflorum Lam. [7]; [8]): 5 (Herbicidal ratio of 90% or more (almost completely withered)); N: Amaranthus retroflexus, herbicidal effect grade (Amaranthus retroflexus): 0 (Herbicidal ratio of 5% or lower (almost no effect))
5 | CON=C(CC1CC(O)=C(c2c(C)cc(-n3cc(Cl)cn3)cc2C)C1=O)C(C)C (stereo not drawn) [9-004] |  | 5 (Herbicidal ratio of 90% or more (almost completely withered)) |  |  |  |  |  | 5 (Herbicidal ratio of 90% or more (almost completely withered)) |  |  |  |  |  |  |  | 5 (Herbicidal ratio of 90% or more (almost completely withered)) | 0 (Herbicidal ratio of 5% or lower (almost no effect)) | 5 (Herbicidal ratio of 90% or more (almost completely withered)) | 0 (Herbicidal ratio of 5% or lower (almost no effect)) | 2 (Herbicidal ratio of 20% or higher and lower than 40%) | Herbicidal effect grade, R: Veronica persica (Veronica persica [4]; [8]): 0 (Herbicidal ratio of 5% or lower (almost no effect)); Herbicidal effect grade, H: Echinochloa crus-galli var. crus-galli [6, 8]: 5 (Herbicidal ratio of 90% or more (almost completely withered)); Effect on crop grade, g: rapeseed (rapeseed; [8]): 0 (Herbicidal ratio of 5% or lower (almost no effect)); Herbicidal effect grade, I: Avena fatua (Avena fatua; [8]): 2 (Herbicidal ratio of 20% or higher and lower than 40%); Herbicidal effect grade, J: Alopecurus myosuroides (Alopecurus myosuroides; [8]): 5 (Herbicidal ratio of 90% or more (almost completely withered)); Effect on crop grade, c: corn (corn; [8]): 0 (Herbicidal ratio of 5% or lower (almost no effect)); Herbicidal effect grade, K: Lolium multiflorum Lam. (Lolium multiflorum Lam. [7]; [8]): 4 (Herbicidal ratio of 70% or higher and lower than 90%)

From patent US11000033B2, “Ketone or oxime compound, and herbicide” (NISSAN CHEMICAL CORPORATION, priority 2014, dated 2021)
